Values quoted from earlier work in patent US11608532B2, “Precision medicine for treating and preventing suicidality” (Indiana University Research and Technology Corporation, priority 2017, dated 2023).
Read-outs that look alike come from different tables or passages of the source.

What was measured:
[1] = test system: top male bipolar biomarkers for suicidality
[2] = test system: individual top biomarkers for suicidality; settings: for HTR2A modulated by drug in opposite direction to suicide: DE/2
[3] = HTR2A, 244130_at, (I) in suicidality, male bipolars
[4] = A. Top Universal Biomarkers, direction of change in suicidality (I)
[5] = C. Top Biomarkers in Females, direction of change in suicidality I
[6] = D. Top Biomarkers in Bipolar Disorder, direction of change in suicidality (I)
[7] = F. Top Biomarkers in Males with Bipolar Disorder, direction of change in suicidality (I)
[8] = biomarker HTR2A (5-hydroxytryptamine (serotonin) receptor 2A, G protein-coupled)

CN1C(=O)CN=C(c2ccccc2)c2cc(Cl)ccc21 [Diazepam]
Drugs that Modulate the Biomarker in Opposite Direction to Suicide ([1]; SPTBN1, 215918_s_at, (I) in suicidality, male bipolars): Diazepam | Step 6 Drugs that Modulate the Biomarker in Opposite Direction to Suicide ([2]; biomarker AKAP13 (A kinase (PRKA) anchor protein 13)): Diazepam | Step 6 Drugs that Modulate the Biomarker in Opposite Direction to Suicide ([2]; biomarker PGK1 (phosphoglycerate kinase 1)): Diazepam | Step 6 Drugs that Modulate the Biomarker in Opposite Direction to Suicide ([2]; biomarker PSMB4): Diazepam | Drugs that modulate the biomarker SPTBN1 ([2]; biomarker SPTBN1 (spectrin, beta, non-erythrocytic 1), Table 20 CFE drug-evidence): Diazepam

Cc1nc2n(c(=O)c1CCN1CCC(c3noc4cc(F)ccc34)CC1)CCCC2O (centres unmarked) [Paliperidone]
Drugs that Modulate the Biomarker in Opposite Direction to Suicide [1, 3]: Paliperidone | HTR2A modulated by drug in opposite direction to suicide [2, 4]: Paliperidone, | HTR2A modulated by drug in opposite direction to suicide [2, 5]: Paliperidone, | HTR2A modulated by drug in opposite direction to suicide [2, 6]: Paliperidone, | HTR2A modulated by drug in opposite direction to suicide [2, 7]: Paliperidone, | Step 6 Drugs that Modulate the Biomarker in Opposite Direction to Suicide [2, 8]: Paliperidone,

Cc1nc2n(c(=O)c1CCN1CCC(c3noc4cc(F)ccc34)CC1)CCCC2 [Risperidone]
Drugs that Modulate the Biomarker in Opposite Direction to Suicide [1, 3]: Risperidone | IFNG modulated by drug in opposite direction to suicide ([2]; A. Top Universal Biomarkers, direction of change in suicidality (D), AP/1): Risperidone, | Step 6 Drugs that Modulate the Biomarker in Opposite Direction to Suicide [2, 8]: Risperidone

CCCC(CCC)C(=O)O [Valproate]
Drugs that Modulate the Biomarker in Opposite Direction to Suicide [1, 3]: Valproate | known drugs or classes of drugs that have an opposite effect to suicidality on the biomarker's direction of change (pharmacogenomics) (BioM50 panel biomarkers; biomarker BCL2 (B-cell CLL/lymphoma 2)): Valproate | Matching to Treatments (Pharmacogenomics) Drugs that Modulate the Biomarker in opposite Direction to Suicide (BioM50 panel biomarkers; biomarker NR3C1, probeset 201866_s_at, (D) decreased in high suicidal ideation): Valproate | Matching to Treatments (Pharmacogenomics) Drugs that Modulate the Biomarker in opposite Direction to Suicide (BioM50 panel biomarkers; biomarker PRKAR2B, probeset 203680_at, (D) decreased in high suicidal ideation): Valproate | SLC4A4 modulated by drug in opposite direction to suicide ([2]; A. Top Universal Biomarkers, direction of change in suicidality (I), AP/1): Valproate | HTR2A modulated by drug in opposite direction to suicide [2, 4]: Valproate | SLC4A4 modulated by drug in opposite direction to suicide ([2]; B. Top Biomarkers in Males, direction of change in suicidality I, AP/2): Valproate | TPR modulated by drug in opposite direction to suicide ([2]; C. Top Biomarkers in Females, direction of change in suicidality D, AP/4): Valproate | HTR2A modulated by drug in opposite direction to suicide [2, 5]: Valproate | HTR2A modulated by drug in opposite direction to suicide [2, 6]: Valproate | TSPYL1 modulated by drug in opposite direction to suicide ([2]; E. Top Biomarkers in Depression, direction of change in suicidality (D), AP/1): Valproate | GLIPR1 modulated by drug in opposite direction to suicide ([2]; E. Top Biomarkers in Depression, direction of change in suicidality (D), DE/1): Valproate | HTR2A modulated by drug in opposite direction to suicide [2, 7]: Valproate | TSPYL1 modulated by drug in opposite direction to suicide ([2]; G. Top Biomarkers in Males with Depression, direction of change in suicidality D, AP/1): Valproate | Step 6 Drugs that Modulate the Biomarker in Opposite Direction to Suicide ([2]; biomarker CTTN (cortactin)): Valproate | Step 6 Drugs that Modulate the Biomarker in Opposite Direction to Suicide [2, 8]: Valproate | Step 6 Drugs that Modulate the Biomarker in Opposite Direction to Suicide ([2]; biomarker PKP4 (plakophilin 4)): Valproate | Step 6 Drugs that Modulate the Biomarker in Opposite Direction to Suicide ([2]; biomarker PRKAR2B): Valproate | Drugs that modulate the biomarker RBM3 ([2]; biomarker RBM3 (RNA binding motif (RNP1, RRM) protein 3), Table 20 CFE drug-evidence): Valproate | Step 6 Drugs that Modulate the Biomarker in Opposite Direction to Suicide ([2]; biomarker SLC4A4): Valproate

CN1CCN2c3ncccc3Cc3ccccc3C2C1 (centres unmarked) [mirtazapine]
Drugs that Modulate the Biomarker in Opposite Direction to Suicide [1, 3]: mirtazapine | HTR2A modulated by drug in opposite direction to suicide [2, 4]: mirtazapine, | HTR2A modulated by drug in opposite direction to suicide [2, 5]: mirtazapine, | HTR2A modulated by drug in opposite direction to suicide [2, 6]: mirtazapine, | HTR2A modulated by drug in opposite direction to suicide [2, 7]: mirtazapine,

CCc1nn(CCCN2CCN(c3cccc(Cl)c3)CC2)c(=O)n1CCOc1ccccc1 [nefazodone]
Drugs that Modulate the Biomarker in Opposite Direction to Suicide [1, 3]: nefazodone

OCCOCCN1CCN(C2=Nc3ccccc3Sc3ccccc32)CC1 [quetiapine]
Drugs that Modulate the Biomarker in Opposite Direction to Suicide [1, 3]: quetiapine

O=C1NCCN1CCN1CCC(c2cn(-c3ccc(F)cc3)c3ccc(Cl)cc23)CC1 [sertindole]
Drugs that Modulate the Biomarker in Opposite Direction to Suicide [1, 3]: sertindole

CSc1ccc2c(c1)N(CCC1CCCCN1C)c1ccccc1S2 (centres unmarked) [thioridazine]
Drugs that Modulate the Biomarker in Opposite Direction to Suicide [1, 3]: thioridazine

O=C1Cc2cc(CCN3CCN(c4nsc5ccccc45)CC3)c(Cl)cc2N1 [ziprasidone]
Drugs that Modulate the Biomarker in Opposite Direction to Suicide [1, 3]: ziprasidone

omega-3 fatty acids [reference compound]
Drugs that Modulate the Biomarker in Opposite Direction to Suicide [1]: Omega-3 | Drugs that Modulate the Biomarker in Opposite Direction to Suicide (direction of change by drug) [1]: (I) | Matching to Treatments (Pharmacogenomics) Drugs that Modulate the Biomarker in opposite Direction to Suicide (BioM50 panel biomarkers): Omega-3
